How the values were obtained:
CYP2A6 = target: T1, CYP2A6 (Homo sapiens, UniProt P11509); experiment: Urinary 1,7-dimethyluric acid/paraxanthine metabolic ratio after caffeine (CYP2A6 phenotyping); conditions: urine, 0–360 min after 50 mg caffeine oral; ten PCB-exposed subjects
T1 sequence (P11509 1-494): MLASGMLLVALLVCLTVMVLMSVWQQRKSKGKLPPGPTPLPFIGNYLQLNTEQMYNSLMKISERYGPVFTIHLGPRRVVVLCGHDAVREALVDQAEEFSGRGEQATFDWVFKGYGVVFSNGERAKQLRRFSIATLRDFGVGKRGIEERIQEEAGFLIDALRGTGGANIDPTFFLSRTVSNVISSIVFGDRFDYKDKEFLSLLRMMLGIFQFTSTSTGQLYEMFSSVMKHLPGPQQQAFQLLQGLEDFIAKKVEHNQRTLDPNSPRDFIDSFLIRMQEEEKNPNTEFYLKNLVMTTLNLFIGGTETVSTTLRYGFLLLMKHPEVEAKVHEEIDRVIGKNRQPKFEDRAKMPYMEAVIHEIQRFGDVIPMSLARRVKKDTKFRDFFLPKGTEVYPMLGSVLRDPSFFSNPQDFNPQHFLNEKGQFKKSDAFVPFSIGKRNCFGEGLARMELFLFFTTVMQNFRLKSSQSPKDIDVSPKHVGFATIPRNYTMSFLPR
Source text: Ten subjects with prior occupational exposure to PCBs and ten controls were included into a clinical CYP phenotyping cocktail study at the Institute for Occupational, Social and Environmental Medicine, University Hospital RWTH Aachen. PCB-exposed participants were reinvited from the HELPcB (Health Effects in High-Level Exposure to PCB) medical surveillance program. […] Subjects were allowed to consume non-caffeinated beverages and received a meal 3 following the administration of the drug cocktail. Concentrations of the test compounds and their CYP-mediated metabolites were measured using LC–MS, with urine sampling over 24 h with 5 time points at 1,2,4,6, and 24 h after drug cocktail intake. […] Urine samples were weighed during sampling.
20 µL urine or calibrators and quality controls in Sigmatrix urine diluent (SAE0074-1L, Sigma-Aldrich) were protein precipitated with 80 µL methanol including 1000 ng/mL internal standards caffeine-d9, paraxanthine-d6, and 1,7-dimethyluric acid-d3. Samples were briefly vortexed and centrifuged for 5 min at 17,000g and 4 °C. […] Caffeine and paraxanthine were detected in positive ion mode and 1,7-dimethyluric acid in negative ion mode. […] The metabolic ratio for 1,7-dimethyluric acid/paraxanthine was calculated based on the measured urine concentrations. […]

HEK293CYP2C9 cells [1] = experiment: Neutral comet assay in HEK293CYP2C9 cells; type: cell-based, human; conditions: HEK293CYP2C9 control cells; 20 or 30 µM
Protocol: (§1) For neutral comet assays, transgenic CYP2A6 and transgenic CYP2C9 cells were treated with parent PCBs for 5 h. After treatments, 50 μL of a suspension of 10^5 cells/mL were washed in PBS and resuspended in 500 μL of preheated agarose (37 °C). The agarose/cell suspensions were applied to microscopic slides and left for 30 min at 4 °C to allow gel polymerization. After cell lysis using a commercial buffer (Trevigen, Gaithersburg, USA), single-cell gel electrophoresis was performed at 1 V/cm for 1 h. After precipitation of the DNA with ammonium acetate, samples were fixed in 70% ethanol for 30 min and dried. To visualize dsDNA, SYBR™ Green I Nucleic Acid Gel Stain (Invitrogen, Carlsbad, USA) was used. Pictures of at least 50 cells/section were taken using a fluorescence microscope (DMRX, Leica: 450–490 nm BP- filter, 40 × magnification). The extent of the genotoxic effect of PCBs was calculated using the ImageJ-based OpenComet software.

HEK293CYP2A6 cells [2] = experiment: MTT assay in HEK293CYP2A6 cells; type: cell-based, human; conditions: for Concentration from which the fraction of cell viability affected (FA) increased: HEK293CYP2A6 cells, MTT; for IC50: Homo sapiens, HEK293CYP2A6 cell line, read-out: IC50 (MTT, cell viability / metabolic activity); for PCB concentration at which the difference between HEK293 cells and CYP2A6 transgenic cells becomes statistically significant: MTT assay, Fig. 2
Protocol: For the determination of metabolic activity, HEK293 cells as well as transgenic HEK293CYP2A6 and HEK293CYP2C9 cells were plated into 96-well flat-bottomed microtiter plates (Becton Dickinson, Heidelberg, Germany) at a density of 1 × 10^5 cells in 100 μL of media. Cells were allowed to grow for 24 h geneticin free before PCBs were added. Controls included cells grown in medium with and without ethanol (maximal 1% (vol/vol)) added. After 48 h, the ability of remaining viable cells to transform 3-(4,5-dimethylthiazol-2-yl)-2,5-diphenyltetrazolium bromide (MTT) into formazan was assessed (MTT Cell Proliferation Assay, ATCC, Manassas, USA). The absorbance of the samples was measured on a Microplate Reader (FLUOstar, BMG Labtech, Ortenberg, Germany) at 450 nm.

HEK293CYP2A6 cells [3] = experiment: Light microscopic evaluation of HEK293CYP2A6 cells; type: cell-based, human; conditions: 24 h of incubation (data not shown)
HEK293CYP2A6 cells [4] = experiment: Neutral comet assay in HEK293CYP2A6 cells; type: cell-based, human; conditions: for Comet assay: percentage of tail DNA / DNA damage above background: 20 or 30 µM
Protocol: as §1

HEK293CYP2C9 cells [5] = experiment: Micronucleus assay in HEK293CYP2C9 cells; type: cell-based, human; conditions: 20 and 30 µM, 24 h
Protocol: (§2) Transgenic HEK293CYP2A6 and HEK293CYP2C9 cells were cultured in T25 flasks, with a seeding density of 1 × 10^6 cells per flask at 37 °C with 5% CO2. Cells were allowed to grow for 24 h geneticin free before PCBs were added (20 µM or 30 µM). Controls included cells grown in the presence of 1% ethanol (vol/vol) (negative control) or […] 4-nitroquinoline 1-oxide (positive control). Following further incubation for 24 h, cells were synchronized by adding Cytochalasin B. Subsequently, cells were harvested by trypsinization, centrifuged (2,000g, 10 min), and washed with DPBS (Dulbecco’s PBS). For hypotonic shock, 4 °C cold potassium chloride solution was added to the cells under agitation. Cells were completely resuspended and incubated at room temperature for 5 min. After centrifugation (2,500g, 10 min), the supernatant was discarded. To fix the cells, they were treated with a methanol/acetic acid solution (− 20 °C), with a minimum incubation time of 15 min at room temperature. Following centrifugation (2,500g, 10 min), the supernatant was discarded, and the fixation process was repeated at least three times. Finally, the samples were dissolved in 1 mL of fixative solution and incubated overnight at 4 °C. For analysis, two to three drops from each sample were placed on a glass slide, with intermittent heating of the slide. Subsequently, the cells were visualized with acridine orange, and using a fluorescence microscope (Leica DM6000B, Filter I3 450–490 nm), 2,000 cells per sample were counted.

[6] = PCB concentrations in plasma of HELPcB participants (2010); type: in vivo, human; conditions: human, plasma, other: occupational exposure, sample of 2010
human lymphocytes [7] = tested on: human lymphocytes; set-up: method as in Stadnicki et al. [1979]; conditions: ref Stadnicki et al. [1979]; cited from earlier work
human lymphocytes [8] = tested on: human lymphocytes; set-up: method as in Sargent et al. [1989]; conditions: ref Sargent et al. [1989]; cited from earlier work
HEK293CYP2A6 cells [9] = experiment: Micronucleus assay in HEK293CYP2A6 cells; type: cell-based, human; conditions: HEK293CYP2A6 cells; 20 and 30 µM, 24 h
Protocol: as §2

bone marrow and liver = tested on: bone marrow and liver; set-up: method as in Sargent et al. [1992]; conditions: ref Sargent et al. [1992]; cited from earlier work
mouse fibroblasts = tested on: mouse fibroblasts; set-up: method as in Stadnicki et al. [1979]; conditions: ref Stadnicki et al. [1979]; cited from earlier work
[10] = tested on: Salmonella typhimurium strains; set-up: method as in Wyndham et al. [1976]; conditions: PCB52 and its primary metabolites; ref Wyndham et al. [1976]; cited from earlier work
human lung fibroblast = tested on: human lung fibroblast; set-up: method as in Hashmi et al. [2015]; conditions: higher concentrations compared to lower concentrations; ref Hashmi et al. [2015]; cited from earlier work
fish cells = tested on: fish cells; set-up: method as in Marabini et al. [2011]; conditions: ref Marabini et al. [2011]; cited from earlier work

Cn1c(=O)[nH]c2[nH]c(=O)n(C)c2c1=O [1,7-DMU, 1,7-dimethyluric acid]
Logarithmically transformed metabolic ratio of 1,7-DMU and paraxanthine, median (CYP2A6): 0.4

Clc1ccc(-c2ccc(Cl)cc2Cl)cc1 [PCB28, 2,4,4′-trichlorobiphenyl]
Comet assay: increase in percentage of tail DNA (HEK293CYP2C9 cells [1]): not evident
Concentration from which the fraction of cell viability affected (FA) increased (HEK293CYP2A6 cells [2]): 10 µM
IC50 (HEK293CYP2A6 cells [2]): 27 µM
PCB concentration at which the difference between HEK293 cells and CYP2A6 transgenic cells becomes statistically significant (HEK293CYP2A6 cells [2]): 40 µM
Light microscopic evaluation: type of effect (HEK293CYP2A6 cells [3]): primarily cytotoxic effects (cell death)
DNA damage classified according to the comet scale (percentage of tail DNA) (HEK293CYP2A6 cells [4]; 20 µM): moderate damage
DNA damage classified according to the comet scale (percentage of tail DNA) (HEK293CYP2A6 cells [4]; 30 µM): moderate damage
Comet assay: percentage of tail DNA / DNA damage above background (HEK293CYP2A6 cells [4]): concentration-dependent increase
Percentages of micronuclei (HEK293CYP2C9 cells [5]): inactive
concentration at 2010 calendar year ([6]; HELPcB participant AD): 0.823 ng/mL
concentration at 2010 calendar year ([6]; HELPcB participant AE): 1.48 ng/mL
concentration at 2010 calendar year ([6]; HELPcB participant eight): 0.1 ng/mL
concentration at 2010 calendar year ([6]; HELPcB participant five): 0.21 ng/mL
concentration at 2010 calendar year ([6]; HELPcB participant four): 0.023 ng/mL
concentration at 2010 calendar year of sampling ([6]; HELPcB participant one): 2.69 ng/mL
concentration at 2010 calendar year ([6]; HELPcB participant seven): 0.051 ng/mL
concentration at 2010 calendar year ([6]; HELPcB participant six): 0.309 ng/mL
concentration at 2010 calendar year ([6]; HELPcB participant three): 0.999 ng/mL
concentration at 2010 calendar year of sampling ([6]; HELPcB participant two): 0.019 ng/mL

Clc1ccc(Cl)c(-c2cc(Cl)ccc2Cl)c1 [PCB52, 2,2′,5,5′-tetrachlorobiphenyl]
Concentration from which the fraction of cell viability affected (FA) increased (HEK293CYP2A6 cells [2]): 20 µM
IC50 (HEK293CYP2A6 cells [2]): 26.2 µM
PCB concentration at which the difference between HEK293 cells and CYP2A6 transgenic cells becomes statistically significant (HEK293CYP2A6 cells [2]): 40 µM
DNA strand breaks (human lymphocytes [7]): positive or weakly positive
Light microscopic evaluation: type of effect (HEK293CYP2A6 cells [3]): cytostatic effects (proliferation arrest)
Sister chromatid exchange (human lymphocytes [8]): negative
Percentages of micronuclei (HEK293CYP2A6 cells [9]): diminished effect
DNA damage classified according to the comet scale (percentage of tail DNA) (HEK293CYP2A6 cells [4]; 20 µM): low damage
DNA damage classified according to the comet scale (percentage of tail DNA) (HEK293CYP2A6 cells [4]; 30 µM): low damage
Comet assay: percentage of tail DNA / DNA damage above background (HEK293CYP2A6 cells [4]): not
Chromosomal aberrations in vivo (bone marrow and liver): absence of chromosomal aberrations
DNA strand breaks (mouse fibroblasts): positive or weakly positive
Mutagenic activity [10]: did not exhibit mutagenic activity
Percentages of micronuclei (HEK293CYP2C9 cells [5]): indistinguishable effects
concentration at 2010 calendar year ([6]; HELPcB participant AD): 0.026 ng/mL
concentration at 2010 calendar year ([6]; HELPcB participant AE): 0.005 ng/mL
concentration at 2010 calendar year ([6]; HELPcB participant eight): 0.005 ng/mL
concentration at 2010 calendar year ([6]; HELPcB participant five): 0.031 ng/mL
concentration at 2010 calendar year ([6]; HELPcB participant four): 0.005 ng/mL
concentration at 2010 calendar year of sampling ([6]; HELPcB participant one): 0.348 ng/mL
concentration at 2010 calendar year ([6]; HELPcB participant seven): 0.021 ng/mL
concentration at 2010 calendar year ([6]; HELPcB participant six): 0.043 ng/mL
concentration at 2010 calendar year ([6]; HELPcB participant three): 0.04 ng/mL
concentration at 2010 calendar year of sampling ([6]; HELPcB participant two): 0.005 ng/mL

Clc1ccc(Cl)c(-c2cc(Cl)c(Cl)cc2Cl)c1 [PCB101, 2,2′,4,5,5′-pentachlorobiphenyl]
Concentration from which the fraction of cell viability affected (FA) increased (HEK293CYP2A6 cells [2]): 20 µM
IC50 (HEK293CYP2A6 cells [2]): 34.8 µM
PCB concentration at which the difference between HEK293 cells and CYP2A6 transgenic cells becomes statistically significant (HEK293CYP2A6 cells [2]): 60 µM
Light microscopic evaluation: type of effect (HEK293CYP2A6 cells [3]): cytostatic effects (proliferation arrest)
Percentages of micronuclei (HEK293CYP2A6 cells [9]): approximately threefold elevated
DNA damage classified according to the comet scale (percentage of tail DNA) (HEK293CYP2A6 cells [4]; 20 µM): high damage
DNA damage classified according to the comet scale (percentage of tail DNA) (HEK293CYP2A6 cells [4]; 30 µM): moderate damage
Comet assay: percentage of tail DNA / DNA damage above background (HEK293CYP2A6 cells [4]): DNA damage was also seen
Genotoxicity compared with etoposide (comet assay) (HEK293CYP2A6 cells [4]; etoposide 10 µm positive control): more potent than of etoposide
Genotoxicity (human lung fibroblast): increased significantly
Percentages of micronuclei (HEK293CYP2C9 cells [5]): inactive
concentration at 2010 calendar year ([6]; HELPcB participant AD): 0.073 ng/mL
concentration at 2010 calendar year ([6]; HELPcB participant AE): 0.005 ng/mL
concentration at 2010 calendar year ([6]; HELPcB participant eight): 0.005 ng/mL
concentration at 2010 calendar year ([6]; HELPcB participant five): 0.111 ng/mL
concentration at 2010 calendar year ([6]; HELPcB participant four): 0.005 ng/mL
concentration at 2010 calendar year of sampling ([6]; HELPcB participant one): 0.519 ng/mL
concentration at 2010 calendar year ([6]; HELPcB participant seven): 0.03 ng/mL
concentration at 2010 calendar year ([6]; HELPcB participant six): 0.227 ng/mL
concentration at 2010 calendar year ([6]; HELPcB participant three): 0.078 ng/mL
concentration at 2010 calendar year of sampling ([6]; HELPcB participant two): 0.005 ng/mL
DNA strand breaks (fish cells): induce
Micronucleus formation (fish cells): induce

Source: PMC11489226 (Archives of Toxicology, 2024)
